# Experimental data taken from patent US4581366A, “Aldose reductase inhibition by spiro indoline derivatives” (Imperial Chemical Industries PLC, priority 1983, dated 1986).
# How the values were obtained:
# [1] = system: aldose reductase; assay: in vivo aldose reductase inhibition in streptozotocin-diabetic rats (residual sorbitol in sciatic nerve); parameters: species or system rat; conditions: dosed daily for 2-5 days, 2-4 hours after final dose
# Description: Thus, rats are made diabetic (as evidenced by severe glucosuria being present) by dosing with streptozotocin. The animals are then dosed daily with the test compound for 2-5 days. The animals are then killed 2-4 hours after the final dose and the eye lenses and/or sciatic nerves are removed. After a standard work-up procedure the residual sorbitol levels in each tissue are determined by gas liquid chromatography after conversion to the polytrimethysilyl derivatives. Inhibition of aldose reductase in vivo is then assessed by comparing the residual sorbitol levels in tissues from the dosed diabetic group of rats with those of an undosed group of diabetic rats and an undosed, normal group of rats.
# (§1) In the above in vivo test, an effective dose (ED) may be defined as the oral dose at which the residual sorbitol level in the sciatic nerve is reduced to a level similar to that in the sciatic nerve of normal, undosed rats. In this test the novel compound of formula I has an ED of approximately 1.76 mg/kg. as the racemic form and of approximately 0.62 mg/kg. as the dextrorotatory, optically active form.
# [2] = biological target: T1, aldose reductase (Bos taurus, UniProt P16116); assay: in vitro inhibition of partially purified aldose reductase from bovine lenses (reduction of glucose to sorbitol, spectrophotometric); assay type: biochemical; conditions: read-out: IC50 (concentration necessary to inhibit to the extent of 50% the enzyme's ability to reduce glucose to sorbitol)
# T1 construct: partially purified aldose reductase is isolated in known manner from bovine lenses; from tissue; host or cells: bovine lens
# Description: Thus, partially purified aldose reductase is isolated in known manner from bovine lenses. The percentage inhibition of this enzyme's ability in vitro to reduce aldoses to polyhydric alcohols, and particularly to reduce glucose to sorbitol, caused by a test compound is then determined using standard spectrophotometric methods.
# as §1
IC50 [2],Structure (SMILES),"effective dose (ED): oral dose at which the residual sorbitol level in the sciatic nerve is reduced to a level similar to that of normal, undosed rats [1]"
~24 nM,"O=C1NC(=O)C2(N1)C(=O)N(Cc1ccc(Br)cc1F)c1c(Cl)cccc12 (racemic) [compound of formula I, racemic form, (±)-1'-(4-bromo-2-fluorobenzyl)-7'-chloro-spiro[imidazolidine-4,3'-indoline]-2,2',5-trione]",approximately 1.76 mg/kg
~9.8 nM,"O=C1NC(=O)C2(N1)C(=O)N(Cc1ccc(Br)cc1F)c1c(Cl)cccc12 (single isomer, unassigned; (+)) [(+)-1'-(4-bromo-2-fluorobenzyl)-7'-chloro-spiro[imidazolidine-4,3'-indoline]-2,2',5-trione]",approximately 0.62 mg/kg
